Source: ChEMBL document CHEMBL1795312, “Insights into the structural requirements of farnesyltransferase inhibitors as potential anti-tumor agents based on 3D-QSAR CoMFA and CoMSIA models” (Eur J Med Chem, 2008)

Assay: Inhibition of farnesyltransferase

Row | pIC50 | SMILES
1 | 6.69 | N#Cc1ccc(Cn2cncc2CN[C@@H]2CCN(c3ccccc3)C2=O)cc1
2 | 6.92 | N#Cc1ccc(Cn2cncc2CCN[C@@H]2CCN(c3ccccc3)C2=O)cc1
3 | 6.61 | N#Cc1ccc(Cn2cncc2CCN[C@H]2CCN(CCc3ccccc3)C2=O)cc1
4 | 7.37 | N#Cc1ccc(Cn2cncc2CNC2CCN(C(=O)c3cncc(Br)c3)C2=O)cc1 (stereo not given)
5 | 8.82 | N#Cc1ccc(Cn2cncc2CNC2CCN(c3ccccc3Cl)C2=O)cc1 (stereo not given)
6 | 8.08 | N#Cc1ccc(Cn2cncc2CNC2CCN(c3cccc(Cl)c3)C2=O)cc1 (stereo not given)
7 | 7.68 | N#Cc1ccc(Cn2cncc2CNC2CCN(c3ccc(Cl)cc3)C2=O)cc1 (stereo not given)
8 | 8.28 | N#Cc1ccc(Cn2cncc2CNC2CCN(Cc3ccccc3Cl)C2=O)cc1 (stereo not given)
9 | 7.6 | N#Cc1ccc(Cn2cncc2CNC2CCN(Cc3ccc(Cl)cc3)C2=O)cc1 (stereo not given)
10 | 7.07 | N#Cc1ccc(Cn2cncc2CNC2CCN(c3cccnc3)C2=O)cc1 (stereo not given)
11 | 7.37 | N#Cc1ccc(Cn2cncc2CNC2CCN(c3ccncc3)C2=O)cc1 (stereo not given)
12 | 6.96 | N#Cc1ccc(Cn2cncc2CNC2CCN(C(=O)c3ccccc3)C2=O)cc1 (stereo not given)
13 | 7.96 | N#Cc1ccc(Cn2cncc2CNC2CCN(C(=O)c3cccc4ccccc34)C2=O)cc1 (stereo not given)
14 | 7.19 | N#Cc1ccc(Cn2cncc2CNC2CCN(C(=O)c3ccccc3Cl)C2=O)cc1 (stereo not given)
15 | 7.57 | N#Cc1ccc(Cn2cncc2CNC2CCN(C(=O)c3cccc(Cl)c3)C2=O)cc1 (stereo not given)
16 | 7.05 | N#Cc1ccc(Cn2cncc2CNC2CCN(C(=O)c3ccc(Cl)cc3)C2=O)cc1 (stereo not given)
17 | 5.7 | N#Cc1ccc(Cn2cncc2CNC2CCN(C(=O)c3cccnc3)C2=O)cc1 (stereo not given)
18 | 6.01 | N#Cc1ccc(Cn2cncc2CNC2CCN(C(=O)c3cccnc3N)C2=O)cc1 (stereo not given)
19 | 5.17 | N#Cc1ccc(Cn2cncc2CNC2CCN(C(=O)c3cccnc3O)C2=O)cc1 (stereo not given)
20 | 6.82 | COc1ncccc1C(=O)N1CCC(NCc2cncn2Cc2ccc(C#N)cc2)C1=O (stereo not given)

Row | pIC50 | SMILES
21 | 5.54 | N#Cc1ccc(Cn2cncc2CNC2CCN(C(=O)c3cccnc3S)C2=O)cc1 (stereo not given)
22 | 7.08 | CSc1ncccc1C(=O)N1CCC(NCc2cncn2Cc2ccc(C#N)cc2)C1=O (stereo not given)
23 | 8.32 | CCSc1ncccc1C(=O)N1CCC(NCc2cncn2Cc2ccc(C#N)cc2)C1=O (stereo not given)
24 | 7.23 | CCCN(Cc1cncn1Cc1ccc(C#N)cc1)C1CCN(Cc2ccccc2)C1=O (stereo not given)
25 | 7.17 | N#Cc1ccc(Cn2cncc2CN(Cc2ccccc2)C2CCN(Cc3ccccc3)C2=O)cc1 (stereo not given)
26 | 7.29 | N#Cc1ccc(Cn2cncc2CN(CCc2ccccc2)C2CCN(Cc3ccccc3)C2=O)cc1 (stereo not given)
27 | 7.38 | N#Cc1ccc(Cn2cncc2CN(CCCCc2ccccc2)C2CCN(Cc3ccccc3)C2=O)cc1 (stereo not given)
28 | 7.28 | N#Cc1ccc(Cn2cncc2CN(c2ccccn2)C2CCN(Cc3ccccc3)C2=O)cc1 (stereo not given)
29 | 8.89 | CC(C)(C)OC(=O)NCCCN(Cc1cncn1Cc1ccc(C#N)cc1)C1CCN(Cc2cccc(Cl)c2)C1=O (stereo not given)
30 | 8.12 | N#Cc1ccc(Cn2cncc2CN(CCCN)C2CCN(Cc3cccc(Cl)c3)C2=O)cc1 (stereo not given)
31 | 7.26 | Cc1ccc(COC(c2ccc(C#N)c(-c3ccccc3C)c2)c2cncn2C)cc1 (stereo not given)
32 | 7.21 | Cc1cccc(COC(c2ccc(C#N)c(-c3ccccc3C)c2)c2cncn2C)c1 (stereo not given)
33 | 7.07 | Cc1ccccc1-c1cc(C(OCc2ccccc2)c2cncn2C)ccc1C#N (stereo not given)
34 | 6.42 | N#Cc1ccc(Cn2cncc2CCN[C@@H]2CCN(CCc3ccccc3)C2=O)cc1
35 | 7.26 | Cc1ccccc1COC(c1ccc(C#N)c(-c2ccccc2C)c1)c1cncn1C (stereo not given)
36 | 6.55 | N#Cc1ccc(Cn2cncc2CCN[C@H]2CCN(c3ccccc3)C2=O)cc1
37 | 6.63 | N#Cc1ccc(Cn2cncc2CN[C@H]2CCN(CCc3ccccc3)C2=O)cc1
38 | 7.13 | N#Cc1ccc(Cn2cncc2CN[C@H]2CCN(c3ccccc3)C2=O)cc1
39 | 6.6 | N#Cc1ccc(Cn2cncc2CCN[C@@H]2CCN(Cc3ccccc3)C2=O)cc1
40 | 6.56 | N#Cc1ccc(Cn2cncc2CCN[C@H]2CCN(Cc3ccccc3)C2=O)cc1
